For one molecule, IC50 and Ki results are on record in patent US6057314A, “Low molecular weight bicyclic thrombin inhibitors” (Biochem Pharma Inc., priority 1997, dated 2000).

The target of assay [1] is T1, human thrombin (Homo sapiens, UniProt P00734). Description: dTT assay (fibrin clotting assay, human thrombin and bovine fibrinogen). The class given is biochemical. To be noted: Table 1; concentration required to double the clotting time; read-out: dTT IC50. From the text:
The clotting time was plotted against the inhibitor concentrations and the IC50 was estimated as the inhibitor concentration required to double the clotting time relative to the control.

Assay [2] deals with T1, human thrombin. Nature of the assay: Fibrin clot assay (human plasma, turbidity). To be noted: Table 1, 1 nM thrombin, at 30 minutes. Type of assay: biochemical. The procedure: The fibrin clot assay was performed essentially as described by Krtenansky et al, FEBS, 1987, 211:10. A serial dilution of the inhibitor was prepared in 50 mM tri HCl buffer (pH 7.8 at 23° C.) containing 0.1 M NaCl and 0.1% (w/v) polyethylene glycol 8000. Human plasma (60 μL, collected in 3.8% sodium citrate, blood/anticoagulate 9:1) was added to microtiter wells (microtiter plate, Falcon) containing 100 μL of various inhibitor dilutions. The solution was mixed after which 50 μL of human thrombin (1 nM final conc.) was added and mixed for 15 seconds. The turbidity of the clot was immediately monitored by microplate autoreader (Dynateck MR 5000) at 405 nm and recorded every 3 min. The maximal turbidity in the absence of inhibitors was reached within 60 min. IC50 values were calculated at 30 minutes as the inhibitor concentration that gave half the optical density of the control.

Assay [3] deals with washed platelets from rats. Description: Platelet aggregation (washed rat platelets, thrombin stimulated). The class given is cell-based. To be noted: Table 1, suspension of washed platelets from rats, human thrombin 0.1 IU/mL, read-out: Antiplatelet activity, Aggregation (IC50). The procedure:
(§1) Platelet Aggregation and Secretion Rat blood was collected into ACD (6/1 v/v) by cardiac puncture. Suspensions of washed platelets were prepared as described by […] et al, (Br. J. Haematol. 1970, 19:7 and Proc. Soc. Exp. Biol. Med. 1971, 136:1021). […] Platelet counts were adjusted to 5000,000/ μL. Platelet aggregation was recorded at 37° C. in an aggregometer (BioData PAP-4) at a stirring speed of 1,100 rpm by measuring the variations of light transmission. […] IC50 values represent the concentration that was necessary to inhibit platelet aggregation or secretion to 50% of the control.

Assay [4] has as its system washed platelets from rats. Nature of the assay: Platelet secretion (14C-serotonin, 5-HT, release from washed rat platelets, thrombin stimulated). Type of assay: cell-based. Conditions: Table 1, human thrombin 0.1 IU/mL, read-out: Antiplatelet activity, 5-HT Secretion (IC50). The procedure:
as §1, with “μL. To permit measurement of the extent of release of the contents of the dense granules, the platelets were labelled in the first washing solution with ^14 C-serotonin (5-HT) (1 μCi/10 mL of washing fluid) and release of ^14 C-serotonin was determined as described in Holmsen et al, (Enzymology, 1989, 169:206). […] (5 μM final conc.) was added to present the reuptake of released serotonin.” for “μL.”

For assay [5], the target named is T1, human thrombin. Nature of the assay: Inhibition of amidolytic activity of human thrombin (Ki, fluorogenic substrate Tos-Gly-Pro-Arg-AMC). The class given is biochemical. Conditions: Table 1, read-out: Ki (inhibitory dissociation constant for human thrombin). As for the experimental part:
In an assay to determine the inhibitory dissociation constant, Ki, for a given compound, a chromogenic or fluorogenic substrate of thrombin would be added to a solution containing a test compound and thrombin; the resulting catalytic activity of the enzyme would be spectrophotometrically determined. This type of assay is well known to those skilled in the art.
Determination of K1 Values for Heterocyclics
The steady-state velocity was then measured for a few minutes. The compounds of this invention were also pre-incubated with thrombin for 20 minutes at room temperature before adding the substrate.

What is called IC50 is the concentration needed to halve the response being measured. Usually Ki stands for a dissociation constant, usually derived from enzyme kinetics or from competition with a known ligand.

SMILES strings stand for the structures.

Turning to `CC(SCC(=O)C(CCCNC(=N)N)NC(=O)[C@@H]1CSC2CC[C@@H](CC3CCCCC3)C(=O)N21)C(=O)O` (stereo partly drawn) [Compound 0070, 6S-cyclohexylmethylhexahydro-5-oxo-5H-thiazolo[3,2-a]pyridine-3R-carboxamido(1-carboxy-2-methyl-3-thiobutylketoarginine)], the IC50 in assay [1] was found to be 25 µM; in assay [2] it was 78 µM; in assay [3], 22 µM; in assay [4], 2.1 µM. Besides, the inhibition constant Ki in assay [5] worked out at 4.4 µM.
